The subject of one data set is rat oral microbiome. The data set is described as follows: Rat oral microbiome (16S rRNA gene sequencing). The note with it: for overall effect on rat oral microbiome / oral microbiome composition, phylum level: 2-week and 4-week treatment; for oral microbiome composition, phylum level / oral microbiome composition, family level within Firmicutes: 100 μM; for oral microbiome composition, family level within Firmicutes: 4-week treatment; for beta diversity (Bray-Curtis, PERMANOVA): P-value>0.05 vs native community. The data set is classed as in vivo, Fischer 344 rats. On the procedure:
During this study, rat oral microbiome samples were collected from individual rats (n=5) at the following time points: before the experiment (Native), after inoculation of S. mutans and the start of a caries-promoting diet (Sm+CPD), after two weeks of treatment with the compound (2-week), and at the end of the study (END). The microbiota between the groups at different time points was analyzed for oral bacterial composition and abundance. Oral swabs collected before and after interventions with these compounds were analyzed using the 16s rRNA gene sequencing method. Both ‘within’ (alpha diversity) and ‘between’ (beta diversity) sample diversities were calculated over time for each treatment group using MicrobiomeAnalyst 2.0^[55].
(§1) We used Fischer 344 rats that were bred and maintained in trexler isolators for this experiment. Male and female rat pups were removed from isolators at 20 days of age and randomly assigned into treatment groups of 5 rats/group in cages with filter tops. Rats were then infected with S. mutans UA159 strain by oral swabbing daily for four consecutive days with a fresh overnight culture of S. mutans UA159. Rats were provided with caries promoting Teklad Diet 305 containing […] (Harlan Laboratories, Inc., Indianapolis, IN) and sterile drinking water ad libitum. Oral swabs were taken 5 days post-infection and plated on Todd Hewitt (TH) agar plates and incubated at 37° C. in an environment of 5% CO2 in the air to confirm colonization. Rats were weighed at weaning and then weekly throughout the experiment. One-week post-infection, the molars of the rats were brushed twice daily for 4 weeks with the test compounds using camel-hair brushes. Four treatment groups used in this study were: 1) HA5 (100 μM); 2) […] (100 μM); 3) NaF (250 ppm); and 4) infected untreated rats. Drinking water was withheld for 60 min following each treatment with the compound. Animals were weighed at weaning and at the termination of the experiment. On day 60, the rats were sacrificed using CO2 followed by cervical dislocation or bilateral thoracotomy. The mandibles were surgically removed and cleaned of excess tissue to assess the level of bacteria present and the extent of caries formation. The right mandible from each rat was placed in a tube containing phosphate buffer (3 mL), placed on ice and sonicated (10 sec) to release bacteria from the molars. Each sample was serially diluted, plated on blood (BAP) and mitis-salivarius (MS) agar plates and incubated in an environment of 5% CO2 in air at 37° C. to quantify the level of total bacteria and S. mutans present in the plaque. The right and left mandibles from each rat were then placed in 95% ethanol for 24 h. The mandibles will be cleaned and stained overnight with murexide solution. After drying, the mandibles were sectioned and scored for caries activity using the Keyes method Caries scores were recorded for the buccal, sulcal and proximal molar surfaces individually so that differences among the surfaces can be distinguished. Statistical significance in the mean caries scores, colony-forming units (CFU)/mandible and body weights between groups of rats were determined by one-way analysis of variance (ANOVA) with the Tukey-Kramer multiple comparison test using the InStat program (GraphPad Prism 10.0.2.). When determining the statistical significance between the two groups, an unpaired t-test was applied. Differences between groups were considered significant at a P-value<0.05.
In addition to recording buccal, sulcal and proximal molar surface caries scores and colony-forming units (CFU)/mandible and body weights between groups of rats as described above, plaque samples from rats treated or untreated were collected and DNA was extracted from each sample and used for PCR amplification of ~430 bp amplicons of 16S ribosomal DNA hypervariable regions V3 and V4, Illumina adaptors, and molecular barcodes as described^[66]. […]

Data set [1] in a line: Body weight of animals, HA5 / HA6 study. The data set is classed as in vivo, Fischer 344 rats. The note with it: for Weight: 100 μM (NaF 250 ppm); for weight loss: 4-week treatment, 100 μM.
Description: as §1

A further data set deals with S. mutans UA159. The data set is described as follows: Gnotobiotic rat model of dental caries (HA5 / HA6 study, Example 2). The data set is classed as in vivo, Fischer 344 rats infected with S. mutans UA159. The note with it: for effect on bacterial colonization / reduction in caries scores: 4-week treatment, 100 μM; for CFU/mL BAP: Blood agar plate; for CFU/mL BAP / CFU/mL MS / Buccal Mean Caries Scores (±SEM) Dx / Sulcal Mean Caries Scores (± SEM) Dx / Buccal Mean Caries Scores (±SEM) Dm / Sulcal Mean Caries Scores (± SEM) Dm / Buccal Mean Caries Scores (±SEM) Ds / Proximal Mean Caries Scores (± SEM) Ds / Sulcal Mean Caries Scores (± SEM) Ds / Buccal Mean Caries Scores (±SEM) E / Proximal Mean Caries Scores (± SEM) E / Sulcal Mean Caries Scores (± SEM) E: 100 μM (NaF 250 ppm); for CFU/mL MS: Mitis-Salivarius agar; for Buccal Mean Caries Scores (±SEM) Dx / Sulcal Mean Caries Scores (± SEM) Dx: dentinal extensive; for Buccal Mean Caries Scores (±SEM) Dx / Sulcal Mean Caries Scores (± SEM) Dx / Buccal Mean Caries Scores (±SEM) Dm / Sulcal Mean Caries Scores (± SEM) Dm / Buccal Mean Caries Scores (±SEM) Ds / Proximal Mean Caries Scores (± SEM) Ds / Sulcal Mean Caries Scores (± SEM) Ds / Buccal Mean Caries Scores (±SEM) E / Proximal Mean Caries Scores (± SEM) E / Sulcal Mean Caries Scores (± SEM) E: twice daily, 4 weeks, n = 5; for Buccal Mean Caries Scores (±SEM) Dm / Sulcal Mean Caries Scores (± SEM) Dm: dentinal moderate; for Buccal Mean Caries Scores (±SEM) Ds / Proximal Mean Caries Scores (± SEM) Ds / Sulcal Mean Caries Scores (± SEM) Ds: dentinal slight; for Buccal Mean Caries Scores (±SEM) E / Proximal Mean Caries Scores (± SEM) E / Sulcal Mean Caries Scores (± SEM) E: enamel. Further details: key to Buccal Mean Caries Scores (±SEM) E / Buccal Mean Caries Scores (±SEM) Ds / Buccal Mean Caries Scores (±SEM) Dm / Buccal Mean Caries Scores (±SEM) Dx / Sulcal Mean Caries Scores (± SEM) E / Sulcal Mean Caries Scores (± SEM) Ds / Sulcal Mean Caries Scores (± SEM) Dm / Sulcal Mean Caries Scores (± SEM) Dx / Proximal Mean Caries Scores (± SEM) E / Proximal Mean Caries Scores (± SEM) Ds: Keyes method caries scores, mean ± SEM. On the procedure:
To understand how these compounds affect the residential bacterial community, we conducted an in vivo evaluation of both HA5 and HA6 and compared to the untreated and NaF-treated rats using a well-established gnotobiotic rat model of dental caries^[50-54]. Treatment groups used in this study were inhibitor HA5 (100 μM), inhibitor HA6 (100 μM), and vehicle. A UA159 infection only group served as a negative control and a NaF (250 ppm) served as a positive control.
All rats from the experimental groups and from the control groups were colonized with S. mutans UA159. […] The effect of the treatment on dentinal moderate (Dm) and dentinal extensive (Dx) scores in the proximal area were not recorded as there were no observable caries lesions in both control and the treated groups. The observed reductions in caries scores by HA5 or HA6 were slightly lower than the positive control NaF treatment. However, it should be noted that the concentration of NaF (250 ppm=5.95 mM) is about 59-fold higher than the inhibitor treatment dose of 100 μM.
as §1

The text below walks through data of patent US20260315431A1, “NANOMATERIAL ENCAPSULATED BIOFILM INHIBITORS FOR DENTAL CARIES TREATMENT” (THE UAB RESEARCH FOUNDATION, priority 2023, published 2026).

The structures appear in SMILES notation. “Also recorded” adds a separate entry of the source. Marks after values point to notes of the source that are not given here.

`O=C1/C(=C/c2cc(O)c(O)cc2O)Oc2ccccc21` [HA5, 2-[(2′,4′,5′-Trihydroxyphenyl)methylidene]-2,3-dihydro-1-benzofuran-3-one]: in the data set on rat oral microbiome, the “overall effect on rat oral microbiome” value is on record as “without affecting the rat oral microbiome; also recorded: without perturbing the overall rat oral microbiome significantly; also recorded: do not perturb oral microbiome significantly”; the “oral microbiome composition, phylum level” value is recorded as “did not perturb the overall rat oral microbiome at phylum levels significantly”; the “oral microbiome composition, family level within Firmicutes” value was “did not perturb the overall rat oral microbiome significantly within this phylum”; the “beta diversity (Bray-Curtis, PERMANOVA)” value is listed as “without any significant deviations”. In addition, in data set [1], the Weight is on record as 156 ± 16 g and the “weight loss” value was “did not experience significant weight loss”. Besides, in the data set with S. mutans UA159, the “effect on bacterial colonization” value was “did not affect bacterial colonization significantly”, the “reduction in caries scores” value was “significant reductions in buccal caries scores; also recorded: can significantly reduce the caries scores in vivo”, the “CFU/mL BAP” value was 3.9 ± 1.4 CFU/mL (×10^5) and the “CFU/mL MS” value is on record as 2.2 ± 0.8 CFU/mL (×10^5). In the data set with S. mutans UA159, the “Buccal Mean Caries Scores (±SEM) Dx” value came out at 2.2 ± 0.7, the “Sulcal Mean Caries Scores (± SEM) Dx” value was 1.0 ± 0.3, the “Buccal Mean Caries Scores (±SEM) Dm” value was found to be 3.6 ± 0.4 and the “Sulcal Mean Caries Scores (± SEM) Dm” value came out at 4.6 ± 0.2. Further, in the data set with S. mutans UA159, the “Buccal Mean Caries Scores (±SEM) Ds” value was 6.6 ± 0.5, the “Proximal Mean Caries Scores (± SEM) Ds” value is reported as 0.0 ± 0.0, the “Sulcal Mean Caries Scores (± SEM) Ds” value turned out to be 11.2 ± 0.6 and the “Buccal Mean Caries Scores (±SEM) E” value was found to be 7.8 ± 0.4. For the same compound, in the data set with S. mutans UA159, the “Proximal Mean Caries Scores (± SEM) E” value is 1.0 ± 0.3 and the “Sulcal Mean Caries Scores (± SEM) E” value came out at 16.4 ± 2.2.
For `O=C1/C(=C/c2cc(O)c(O)c(O)c2)Oc2ccccc21` [HA6, 2-[(3′,4′,5′-Trihydroxyphenyl)methylidene]-2,3-dihydro-1-benzofuran-3-one], in the data set with rat oral microbiome, the “overall effect on rat oral microbiome” value was “without affecting the rat oral microbiome; also recorded: without perturbing the overall rat oral microbiome significantly; also recorded: do not perturb oral microbiome significantly”; the “oral microbiome composition, phylum level” value is reported as “did not perturb the overall rat oral microbiome at phylum levels significantly”; the “oral microbiome composition, family level within Firmicutes” value is reported as “did not perturb the overall rat oral microbiome significantly within this phylum”; the “beta diversity (Bray-Curtis, PERMANOVA)” value was “without any significant deviations”. Besides, in data set [1], the Weight was determined as 165 ± 13 g and the “weight loss” value is listed as “did not experience significant weight loss”. In addition, in the data set with S. mutans UA159, the “effect on bacterial colonization” value is listed as “did not affect bacterial colonization significantly”, the “reduction in caries scores” value was “significant reductions in buccal caries scores; also recorded: can significantly reduce the caries scores in vivo”, the “CFU/mL BAP” value is 1.9 ± 0.5 CFU/mL (×10^5) and the “CFU/mL MS” value is on record as 1.3 ± 0.4 CFU/mL (×10^5). Besides, in the data set with S. mutans UA159, the “Buccal Mean Caries Scores (±SEM) Dx” value amounted to 1.2 ± 0.5, the “Sulcal Mean Caries Scores (± SEM) Dx” value is reported as 1.6 ± 0.4, the “Buccal Mean Caries Scores (±SEM) Dm” value worked out at 4.0 ± 0.7 and the “Sulcal Mean Caries Scores (± SEM) Dm” value turned out to be 6.4 ± 0.4. For the same compound, in the data set on S. mutans UA159, the “Buccal Mean Caries Scores (±SEM) Ds” value came out at 6.8 ± 0.5, the “Proximal Mean Caries Scores (± SEM) Ds” value worked out at 0.0 ± 0.0, the “Sulcal Mean Caries Scores (± SEM) Ds” value was found to be 11.2 ± 0.7 and the “Buccal Mean Caries Scores (±SEM) E” value is listed as 8.2 ± 0.7. Also, in the data set with S. mutans UA159, the “Proximal Mean Caries Scores (± SEM) E” value was 1.2 ± 0.8 and the “Sulcal Mean Caries Scores (± SEM) E” value stood at 14.6 ± 0.9.
As for `[F-].[Na+]` [NaF, reference compound], the “oral bacterial community after Sm+CPD (beta diversity)” value in the data set on rat oral microbiome (NaF-treated group, PERMANOVA, P-value>0.001 (so in the source)) is “the community was shifted”. The “abundance of the Streptococcaceae family” value in the data set with rat oral microbiome (second week, not sustained till the end of the study) is given as “increase in the abundance of the Streptococcaceae family”. Besides, in data set [1], the Weight was determined as 145 ± 12 g. Further, in the data set with S. mutans UA159, the “CFU/mL BAP” value is recorded as 2.8 ± 0.7 CFU/mL (×10^5), the “CFU/mL MS” value is recorded as 1.6 ± 0.6 CFU/mL (×10^5), the “Buccal Mean Caries Scores (±SEM) Dx” value turned out to be 0.4 ± 0.2 and the “Sulcal Mean Caries Scores (± SEM) Dx” value was found to be 1.6 ± 0.5. Besides, in the data set with S. mutans UA159, the “Buccal Mean Caries Scores (±SEM) Dm” value came out at 1.6 ± 0.5, the “Sulcal Mean Caries Scores (± SEM) Dm” value was found to be 5.4 ± 0.4, the “Buccal Mean Caries Scores (±SEM) Ds” value is given as 3.2 ± 0.9 and the “Proximal Mean Caries Scores (± SEM) Ds” value worked out at 0.0 ± 0.0. For the same compound, in the data set on S. mutans UA159, the “Sulcal Mean Caries Scores (± SEM) Ds” value was determined as 10.4 ± 0.5, the “Buccal Mean Caries Scores (±SEM) E” value is reported as 6.2 ± 0.9, the “Proximal Mean Caries Scores (± SEM) E” value came out at 0.0 ± 0.0 and the “Sulcal Mean Caries Scores (± SEM) E” value is 15.2 ± 0.7.
